Results taken from patent publication US20250115597A1, “TYK2 INHIBITORS AND COMPOSITIONS AND METHODS THEREOF” (LYNK PHARMACEUTICALS CO. LTD., priority 2021, published 2025).
pIC50: −log10 of the molar value. In brackets after ≈: the same amount, converted by molar mass. Like-named read-outs stand apart in the source and are kept apart here.

How the values were obtained:
[1] = target: T1, Ba/F3-FL-TYK2-P760L cells (Homo sapiens, UniProt P29597, P760L, cells depend on it); assay: Anti-proliferative assay, Ba/F3-FL-TYK2-P760L cells (Cell-Titer Glo); type: cell-based; details: 72 h, read-out: BaF3-FL-T2P760L IC50
T1 construct: BaF3-FL-T2P760L (nM)
In short: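 Compound exposure ran 72 h at 37 °C in 5% CO2 across nine 3-fold concentrations from a 20 μM top dose, added 24 h after seeding 2000 cells/well.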

TYK2-JH2 domain = target: T2, TYK2-JH2 domain (Homo sapiens, UniProt P29597); assay: Binding activity test for JH2 domain of TYK2 (Tb-antibody/tracer FRET)
T2 construct: IC50 on JH2 domain activity (nM)
In short: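 FRET read-out after 60 min at 25° C plus overnight at 4° C; tracer displacement detected via Tb-labelled antibody on the JH2 domain. Dose-response used 11 points at 3-fold dilution.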

JAK2 = target: T3, JAK2 (Homo sapiens, UniProt O60674); assay: JAK2 kinase activity, microfluidic assay (Caliper EZ Reader II); type: biochemical; details: JAK2 0.125 nM, 1 mM ATP
T3 construct: purchased Carna Biosciences
Protocol: (§1) Testing for JAK1, JAK2 and TYK2 Kinase Activities
(§2) JAK activity was determined in the reaction buffer 50 mM HEPES, 0.01% Brij35, 10 mM MgCl2, 2 mM DTT by a microfluidic assay. The phosphorylation of a FAM labeled peptide substrate was monitored in the Caliper EZ Reader II (Perkin Elmer). The assay condition for each batch of enzyme (Carna Biosciences) was optimized to obtain 10% conversion rate of peptide substrate.
(§3) The test compounds were dissolved in DMSO to a stock concentration of 10 mM. Three-fold serially diluted compounds with top concentration of 5 μM were pre-incubated with JAK1, JAK2 or TYK2 for 10 min at ambient temperature. The final DMSO concentration of assay mixture was 1%. […] The reaction was stopped by adding 50 mM EDTA.
(§4) The percent inhibition was calculated by the following formula:
(§5) [formula] • wherein • Conversion %_max=the conversion rate in the positive well without addition of compound • Conversion %_sample=the conversion rate of test compounds • Conversion %_min=the conversion rate in the well without addition of enzyme
(§6) The dose-response (percent inhibition) curve was plotted and IC50 values were determined by GraphPad software.

TYK2 = target: T4, TYK2 (Homo sapiens, UniProt P29597); assay: TYK2 kinase activity, microfluidic assay (Caliper EZ Reader II); type: biochemical; details: TYK2 1 nM, 1 mM ATP
T4 construct: purchased Carna Biosciences
Protocol: as §1, §2, §3, §4, §5, §6

Ba/F3-TEL-TYK2 cells = target: T5, Ba/F3-TEL-TYK2 cells (Homo sapiens, UniProt P29597); assay: Anti-proliferative assay, Ba/F3-TEL-TYK2 cells (Cell-Titer Glo); type: cell-based; details: 72 h, read-out: BaF3-TEL-TYK2 IC50
T5 construct: fused on or other part: Dimerization domain of TEL (ETV6) fused to the TYK2 kinase domain; P41212 (Transcription factor ETV6)
Protocol: Anti-Proliferative Assay Dimerization domain of Tel protein fused with JAK kinase domain was permanently transduced into Ba/F3 cells, whose proliferation is dependent on JAK activity in the absence of IL-3 induction. These engineered Ba/F3 cells (Ba/F3-FL-TYK2-[…], Ba/F3-TEL-TYK2 and Ba/F3-TEL-JAK2) were used to monitor JAK inhibitory activities of the compounds in the cellular. […] Cells were seeded at 2000/well of white flat bottom 96-well plates. The well containing medium only was used as background control. After 24 h growth, cells were treated with compounds. The test compounds were dissolved in DMSO to a stock concentration of 20 mM. 3-fold serially diluted compounds for 9 concentrations with top concentration of 20 μM was added into the each well. […] The cells continued to grow at 37° C. in 5% CO2 for 72 h after compound treatment. The viability was measured by cellular ATP determination using the Cell-Titer Glo luciferase reagent (Promega). The Luminescence value was recorded by a multi-label reader Envision (PerkinElmer).

JAK1 = target: T6, JAK1 (Homo sapiens, UniProt P23458); assay: JAK1 kinase activity, microfluidic assay (Caliper EZ Reader II); type: biochemical; details: JAK1 5 nM, 1 mM ATP
T6 construct: purchased Carna Biosciences
Protocol: as §1, §2, §3, §4, §5, §6

[2] = Microsomal metabolic stability assay; type: in vitro ADME; details: pH 7.4, 0.5 mg/mL protein, 1 μM compound
In short: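 Parent loss was tracked by LC/MS/MS at 0, 5, 15, 30 and 45 min, with half-life derived from the ln(% remaining)–time slope. Incubation at 37 °C, pH 7.4 phosphate/EDTA buffer: 0.5 mg/mL microsomes, 1 μM compound, NADPH-regenerated (2 mM).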

Kinetic solubility = type: physicochemical; details: phosphate buffer, aqueous buffer, kinetic from dmso stock, PBS (pH 7.4), 1% DMSO, room temperature
Protocol: Aliquots of 8 μL of reference and test compound stock solutions (10 mM/5 mM) are added into 792 μL of 100 mM pH 7.4 phosphate buffer. The final DMSO concentration is 1%. Sample tubes are shaken for 2 hours at 1000 rpm at room temperature. Samples are centrifuged at 12000 rpm for 10 min to precipitate un-dissolved particles. And transfer the supernatants to a new tube or plate. Add 5 μL of samples (no diluted, 10 times diluted and 100 times diluted) and standard curve samples to 95 μL of ACN containing IS for LC-MS/MS analysis.

[3] = dog liver microsomes, read-out: Dog LM Clint
[4] = dog liver microsomes, read-out: Dog LM T½
[5] = human liver microsomes, read-out: Human LM Clint
[6] = human liver microsomes, read-out: Human LM T½
[7] = rat liver microsomes, read-out: Rat LM Clint
[8] = rat liver microsomes, read-out: Rat LM T½

T3 sequence (O60674 whole entry): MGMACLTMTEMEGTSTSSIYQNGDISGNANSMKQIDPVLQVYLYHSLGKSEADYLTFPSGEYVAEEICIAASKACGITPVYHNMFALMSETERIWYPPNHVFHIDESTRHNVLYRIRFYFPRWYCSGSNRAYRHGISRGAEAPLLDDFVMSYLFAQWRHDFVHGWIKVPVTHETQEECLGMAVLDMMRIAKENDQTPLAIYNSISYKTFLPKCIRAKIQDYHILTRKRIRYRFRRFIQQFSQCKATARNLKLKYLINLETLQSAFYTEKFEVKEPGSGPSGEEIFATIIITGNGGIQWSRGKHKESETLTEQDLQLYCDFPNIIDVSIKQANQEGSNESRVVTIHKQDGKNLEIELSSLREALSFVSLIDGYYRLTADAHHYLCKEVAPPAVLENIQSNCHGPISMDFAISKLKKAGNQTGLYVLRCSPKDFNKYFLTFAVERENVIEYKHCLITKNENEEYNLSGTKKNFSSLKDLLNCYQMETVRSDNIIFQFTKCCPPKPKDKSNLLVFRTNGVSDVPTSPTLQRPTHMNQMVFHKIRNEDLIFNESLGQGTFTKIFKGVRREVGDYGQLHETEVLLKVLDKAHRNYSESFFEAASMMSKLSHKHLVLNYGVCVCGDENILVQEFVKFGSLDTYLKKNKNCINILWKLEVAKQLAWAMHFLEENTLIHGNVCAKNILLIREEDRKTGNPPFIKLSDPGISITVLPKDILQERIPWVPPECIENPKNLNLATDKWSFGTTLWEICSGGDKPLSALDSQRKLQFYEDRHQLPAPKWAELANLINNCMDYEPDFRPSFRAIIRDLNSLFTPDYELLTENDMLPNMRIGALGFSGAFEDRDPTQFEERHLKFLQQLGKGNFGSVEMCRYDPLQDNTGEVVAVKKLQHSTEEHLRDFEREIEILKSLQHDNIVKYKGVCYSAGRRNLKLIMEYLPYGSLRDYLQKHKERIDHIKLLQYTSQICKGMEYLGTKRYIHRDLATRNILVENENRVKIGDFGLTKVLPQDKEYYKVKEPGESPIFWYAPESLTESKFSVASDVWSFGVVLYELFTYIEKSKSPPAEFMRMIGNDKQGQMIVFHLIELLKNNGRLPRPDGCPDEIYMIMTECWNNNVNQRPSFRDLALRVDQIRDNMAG
T5 sequence (P29597 whole entry, change not shown, the tested form may be a part): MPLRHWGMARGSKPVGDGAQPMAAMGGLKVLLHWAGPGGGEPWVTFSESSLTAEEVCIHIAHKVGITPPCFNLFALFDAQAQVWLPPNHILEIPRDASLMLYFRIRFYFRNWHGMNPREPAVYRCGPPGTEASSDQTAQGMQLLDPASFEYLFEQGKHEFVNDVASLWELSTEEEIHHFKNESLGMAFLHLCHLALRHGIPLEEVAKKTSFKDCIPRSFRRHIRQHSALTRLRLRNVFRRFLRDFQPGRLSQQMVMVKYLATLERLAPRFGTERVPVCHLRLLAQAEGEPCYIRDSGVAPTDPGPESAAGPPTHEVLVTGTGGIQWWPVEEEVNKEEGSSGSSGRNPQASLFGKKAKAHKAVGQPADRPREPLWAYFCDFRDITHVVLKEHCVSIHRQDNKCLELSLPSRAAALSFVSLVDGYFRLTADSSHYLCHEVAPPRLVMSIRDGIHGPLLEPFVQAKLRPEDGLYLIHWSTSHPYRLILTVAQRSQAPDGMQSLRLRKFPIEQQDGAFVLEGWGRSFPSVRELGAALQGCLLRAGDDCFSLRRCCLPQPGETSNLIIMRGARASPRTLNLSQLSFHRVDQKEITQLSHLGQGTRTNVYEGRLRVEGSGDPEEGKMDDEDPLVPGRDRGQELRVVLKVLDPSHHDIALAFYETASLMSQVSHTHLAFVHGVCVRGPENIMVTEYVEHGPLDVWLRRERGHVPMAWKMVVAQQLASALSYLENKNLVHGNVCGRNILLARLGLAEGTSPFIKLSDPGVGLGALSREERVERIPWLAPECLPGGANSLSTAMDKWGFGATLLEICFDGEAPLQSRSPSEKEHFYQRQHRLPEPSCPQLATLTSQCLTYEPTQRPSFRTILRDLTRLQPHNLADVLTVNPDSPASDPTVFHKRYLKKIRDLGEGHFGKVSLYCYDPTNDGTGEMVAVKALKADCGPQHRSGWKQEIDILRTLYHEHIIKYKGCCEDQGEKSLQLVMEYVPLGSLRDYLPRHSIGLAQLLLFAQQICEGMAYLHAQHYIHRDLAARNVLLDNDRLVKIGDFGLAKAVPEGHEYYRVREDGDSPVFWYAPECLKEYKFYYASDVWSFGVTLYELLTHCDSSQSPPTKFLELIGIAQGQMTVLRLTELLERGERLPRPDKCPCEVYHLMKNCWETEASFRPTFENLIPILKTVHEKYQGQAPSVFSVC
T4 sequence (P29597 whole entry): as the sequence (P29597 whole entry, change not shown, the tested form may be a part) above
T6 sequence (P23458 whole entry): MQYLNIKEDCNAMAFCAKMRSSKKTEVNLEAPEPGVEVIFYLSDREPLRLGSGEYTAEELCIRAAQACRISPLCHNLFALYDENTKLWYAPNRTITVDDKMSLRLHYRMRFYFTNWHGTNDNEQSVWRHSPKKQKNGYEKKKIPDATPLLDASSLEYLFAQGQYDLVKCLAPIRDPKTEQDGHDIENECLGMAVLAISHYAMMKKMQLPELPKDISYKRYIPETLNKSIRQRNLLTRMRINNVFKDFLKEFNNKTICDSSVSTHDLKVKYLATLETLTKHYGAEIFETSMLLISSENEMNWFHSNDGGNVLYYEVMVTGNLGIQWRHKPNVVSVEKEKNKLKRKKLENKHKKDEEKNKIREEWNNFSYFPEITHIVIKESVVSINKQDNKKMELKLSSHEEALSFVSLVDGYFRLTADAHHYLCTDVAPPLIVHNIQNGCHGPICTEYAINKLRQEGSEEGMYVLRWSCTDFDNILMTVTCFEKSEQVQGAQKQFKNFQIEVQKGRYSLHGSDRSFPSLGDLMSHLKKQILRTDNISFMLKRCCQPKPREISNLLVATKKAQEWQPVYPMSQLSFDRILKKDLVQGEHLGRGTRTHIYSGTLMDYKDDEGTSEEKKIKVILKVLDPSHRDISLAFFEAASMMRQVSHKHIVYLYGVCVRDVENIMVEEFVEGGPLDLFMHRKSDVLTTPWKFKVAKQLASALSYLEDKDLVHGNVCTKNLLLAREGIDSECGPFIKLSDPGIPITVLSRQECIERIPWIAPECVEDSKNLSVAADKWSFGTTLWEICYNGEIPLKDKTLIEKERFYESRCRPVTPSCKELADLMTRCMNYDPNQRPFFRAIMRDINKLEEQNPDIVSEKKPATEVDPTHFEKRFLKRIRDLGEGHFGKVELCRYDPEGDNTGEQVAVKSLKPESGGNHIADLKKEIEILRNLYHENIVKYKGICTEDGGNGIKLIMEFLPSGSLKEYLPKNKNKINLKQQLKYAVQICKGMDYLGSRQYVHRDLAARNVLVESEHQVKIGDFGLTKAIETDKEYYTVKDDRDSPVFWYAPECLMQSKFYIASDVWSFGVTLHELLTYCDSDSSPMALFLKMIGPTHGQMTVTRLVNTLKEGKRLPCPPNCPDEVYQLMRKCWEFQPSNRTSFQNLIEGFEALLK
T1 sequence (P29597 whole entry P760L): as the sequence (P29597 whole entry, change not shown, the tested form may be a part) above, with P760L counted along it
T2 sequence (P29597 589-875 limits assumed): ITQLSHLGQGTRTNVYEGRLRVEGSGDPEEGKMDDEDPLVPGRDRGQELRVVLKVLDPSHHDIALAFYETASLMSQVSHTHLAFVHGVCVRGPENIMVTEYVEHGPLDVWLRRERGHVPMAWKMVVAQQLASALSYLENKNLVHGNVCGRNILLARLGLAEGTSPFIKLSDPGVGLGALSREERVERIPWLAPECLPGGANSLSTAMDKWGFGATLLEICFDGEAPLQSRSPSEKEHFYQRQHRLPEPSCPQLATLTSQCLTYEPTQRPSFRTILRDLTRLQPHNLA

| SMILES | GI50 [1] [nM] | pIC50 (TYK2-JH2 domain) | pIC50 (JAK2) | pIC50 (TYK2) | GI50 (Ba/F3-TEL-TYK2 cells) [nM] | pIC50 (JAK1) | microsomal CLint at 1 μM [2, 3] [µL/min/mg] | half-life at 1 μM [2, 4] [min] | microsomal CLint at 1 μM [2, 5] [µL/min/mg] | half-life at 1 μM [2, 6] [min] | microsomal CLint at 1 μM [2, 7] [µL/min/mg] | half-life at 1 μM [2, 8] [min] | solubility at 2 h (Kinetic solubility) [µM] |
| --- | --- | --- | --- | --- | --- | --- | --- | --- | --- | --- | --- | --- | --- |
| CNC(=O)c1cnc2nc1Nc1cc(cc(-c3ncn(C)n3)c1OC)CN(C)Cc1cccc(c1)N2 [Example 22, 10-Methoxy-N,15-dimethyl-11-(1-methyl-1,2,4-triazol-3-yl)-2,4,8,15,23-pentazatetracyclo[15.3.1.13,7.19,13]tricosa-1(21),3(23),4,6,9,11,13(22),17,19-nonaene-6-carboxamide] | 861 |  | < 5.30 | < 5.30 |  | < 5.30 |  |  |  |  |  |  |  |
| CNC(=O)c1nnc(NC(=O)C2CC2)cc1Nc1cccc2ccn(C)c(=O)c12 [Example 24, 6-(Cyclopropanecarboxamido)-N-methyl-4-((2-methyl-1-oxo-1,2-dihydroisoquinolin-8-yl)amino)pyridazine-3-carboxamide] | 1390 |  |  | < 5.30 |  |  |  |  |  |  |  |  |  |
| CNC(=O)c1nnc(NC(=O)C2CC2)cc1Nc1csc2ccn(C)c(=O)c12 [Example 27, 6-(Cyclopropanecarboxamido)-N-methyl-4-((5-methyl-4-oxo-4,5-dihydrothieno[3,2-c]pyridin-3-yl)amino)pyridazine-3-carboxamide] | 50.9 | 9.32 | < 5.30 | < 5.30 | > 20000 | < 5.30 |  |  |  |  |  |  |  |
| CNC(=O)c1cnc2nc1Nc1cc(cc(-c3ncn(C)n3)c1OC)COCc1cccc(c1)N2 [Example 33, 10-Methoxy-N-methyl-11-(1-methyl-1,2,4-triazol-3-yl)-15-oxa-2,4,8,23-tetrazatetracyclo[15.3.1.13,7.19,13]tricosa-1(21),3(23),4,6,9,11,13(22),17,19-nonaene-6-carboxamide] | 499 |  | < 5.30 | < 5.30 |  | < 5.30 | 14.5 | 238 | 26.2 | 132 | 21.8 | 159 |  |
| CCN1CCc2scc(Nc3cc(NC(=O)C4CC4)ncc3C(=O)NC)c2C1=O [Example 39, 6-(Cyclopropanecarboxamido)-4-((5-ethyl-4-oxo-4,5,6,7-tetrahydrothieno [3,2-c]pyridin-3-yl)amino)-N-methyl-nicotinamide] | 88.1 |  | < 5.30 | < 5.30 |  | < 5.30 |  |  |  |  |  |  |  |
| CNC(=O)c1nnc(NC(=O)C2CC2)cc1Nc1cn(C)c2ccn(C)c(=O)c12 [Example 49, 6-(Cyclopropanecarboxamido)-4-((1,5-dimethyl-4-oxo-4,5-dihydro-1H-pyrrolo[3,2-c]pyridin-3-yl)amino)-N-methylpyridazine-3-carboxamide] | 111 |  |  |  |  |  | < 11.5 | > 120 | 14.4 | 96.2 | 32.4 | 42.8 | 6.3 (≈ 2.49 µg/mL) |
| [2H]C([2H])([2H])NC(=O)c1cnc2cc1Nc1cc(cc(-c3ncn(CC)n3)c1OC)COCc1nc(ccc1F)N2 [Example 85, 11-(1-Ethyl-1H-1,2,4-triazol-3-yl)-18-fluoro-10-methoxy-N-(methyl-d3)-15-oxa-2,4,8,21-tetraazatetracyclo[15.3.1.1^{3,7}.1^{9,13}]tricosa-1(20),3,5,7(23),9,11,13(22),17(21),18-nonaene-6-carboxamide] | 142 |  |  |  |  |  |  |  |  |  |  |  | 15.2 (≈ 7.74 µg/mL) |

Next, values leading:

| GI50 [1] [nM] | pIC50 (TYK2-JH2 domain) | pIC50 (JAK2) | pIC50 (TYK2) | GI50 (Ba/F3-TEL-TYK2 cells) [nM] | pIC50 (JAK1) | microsomal CLint at 1 μM [2, 3] [µL/min/mg] | half-life at 1 μM [2, 4] [min] | microsomal CLint at 1 μM [2, 5] [µL/min/mg] | half-life at 1 μM [2, 6] [min] | microsomal CLint at 1 μM [2, 7] [µL/min/mg] | half-life at 1 μM [2, 8] [min] | solubility at 2 h (Kinetic solubility) [µM] | SMILES |
| --- | --- | --- | --- | --- | --- | --- | --- | --- | --- | --- | --- | --- | --- |
| 114 | 9.69 | < 5.30 | < 5.30 | > 10000 | < 5.30 | 47.1 | 73.6 | 128 | 27.1 | 209 | 16.6 |  | CCn1ccc2scc(Nc3cc(NC(=O)C4CC4)ncc3C(=O)NC)c2c1=O [Example 17, 6-(Cyclopropanecarboxamido)-4-((5-ethyl-4-oxo-4,5-dihydrothieno[3,2-c]pyridin-3-yl)amino)-N-methylnicotinamide] |
| 77.5 |  |  | < 5.30 |  |  | 26.8 | 51.7 | 6.42 | 216 | 7.4 | 187 |  | [2H]C([2H])([2H])NC(=O)c1cnc(Nc2cccc(C#N)n2)nc1Nc1cccc(-c2ncn(C)n2)c1OC [Example 21, 2-[(6-Cyano-2-pyridyl)amino]-4-[2-methoxy-3-(1-methyl-1,2,4-triazol-3-yl)anilino]-N-(trideuteriomethyl)pyrimidine-5-carboxamide] |
| 62.9 | 8.88 |  |  | > 20000 |  | 21.4 | 64.8 | 80 | 17.3 | 35.8 | 38.7 |  | CCn1ccc2c(c(Nc3cc(NC(=O)C4CC4)nnc3C(=O)NC)cn2C)c1=O [Example 23, 6-(Cyclopropanecarboxamido)-4-((5-ethyl-1-methyl-4-oxo-4,5-dihydro-1H-pyrrolo[3,2-c]pyridin-3-yl)amino)-N-methylpyridazine-3-carboxamide] |
| 100 |  |  |  |  |  | 45 | 30.8 | 57.8 | 24 | 149 | 9.29 | 109 (≈ 44.9 µg/mL) | [2H]C([2H])([2H])NC(=O)c1cnc(NC(=O)C2CC2)cc1Nc1ccc2ncn(CC)c2c1OC [Example 167, 6-(Cyclopropanecarboxamido)-4-((1-ethyl-7-methoxy-1H-benzo[d]imidazol-6-yl)amino)-N-(methyl-d3)nicotinamide] |
| 124 | 8.47 |  |  |  |  | 21.9 | 63.4 | 26.8 | 51.6 | 72.6 | 19.1 | 17.8 (≈ 8.59 µg/mL) | [2H]C([2H])([2H])NC(=O)c1cnc(Nc2ccc(F)cn2)cc1Nc1cn(CCOC)c2ccn(CC)c(=O)c12 [Example 192, 4-((5-Ethyl-1-(2-methoxyethyl)-4-oxo-4,5-dihydro-1H-pyrrolo[3,2-c]pyridin-3-yl)amino)-6-((5-fluoropyridin-2-yl)amino)-N-(methyl-d3)nicotinamide] |
| 1260 | 8.54 |  |  |  |  |  |  |  |  |  |  | 33.9 (≈ 14.4 µg/mL) | [2H]C([2H])([2H])NC(=O)c1cnc(Nc2ccn(C)n2)cc1Nc1nn(C)c2ccn(CC)c(=O)c12 [Example 219] |
